Measurements taken from US11390884B2, “Optimized CRISPR/cas9 systems and methods for gene editing in stem cells” (Editas Medicine, Inc., priority 2015, dated 2022).
Read-outs that look alike come from different tables or passages of the source. Peptide text beside a SMILES is read from it. * marks the point of attachment. Cbz = O=C(OCc1ccccc1)*

Key:
HBB locus = assay: Gene editing at the HBB locus in cord blood CD34+ HSCs (T7E1, DNA sequencing); assay type: cell-based, human; conditions: CB CD34+, enhancer 18 hours before and 3 days after electroporation with D10A Cas9 RNP, HBB-8/HBB-15, Phx ssODN, UM171 35 nM, UM171/SR-1 35/40 nM, rapamycin 5 nM, OxPAPC 30 μg/mL, bafilomycin A1 1 μM, MG132 0.5 μM
Text: Human CD34^+ HSCs cells were isolated from freshly obtained human umbilical cord blood by ficoll gradient density centrifugation followed by MACS® (antibody conjugated immunomagnetic bead sorting) with mouse anti-human CD34^+ immunomagnetic beads using the human CD34 cell enrichment kit and LS magnetic columns from Miltenyi Biotech. […] In the afternoon of day 3, 2.5 million CD34^+ cells per sample were suspended in electroporation buffer.
In vitro transcribed capped and tailed guide gRNAs HBB-8 and HBB-15 were added at a 2:1 molar ratio (total gRNA:Cas9 protein) to 12.5 μg D10A nickase ribonucleoprotein (RNP) (5 μg RNP per million cells) to each of two samples each containing 2.5 million CB CD34^+ cells. A third CB CD34^+ cell aliquot was mixed with 25 μg D10A nickase RNP and HBB gRNAs (total gRNA:D10A ratio at 2:1).
For all samples, the cells were collected from the cartridge and placed at 37° C. for 20 minutes (recovery period). For the CB CD34^+ HSCs that were contacted with 12.5 μg D10A nickase RNP, one sample was transferred to pre-warmed cytokine supplemented Stemspan-SFEM™ media and placed at 30° C. for 2 hours (cold shock samples) or placed directly into the same media at 37° C. For the cold shocked samples, the cells were transferred to the 37° C. incubator after the 2-hour incubation period at 30° C. […] Genomic DNA was extracted from the HSCs at 48 and 72 hours after electroporation and HBB locus-specific PCR reactions were performed. The purified PCR products were analyzed for insertions/deletions (indels) in T7E1 assays and by DNA sequencing of individual clones (PCR product was transformed and subcloned into TOPO-vector, individual colonies picked, and plasmid DNA containing individual PCR products were sequenced).
Gene editing at the HBB locus was then evaluated at 72 hours after electroporation of D10A nickase RNP co-delivered with 2 gRNAs (HBB-8 and HBB-15). Briefly, gDNA was isolated from electroporated CD34^+ cells at 72 hours after electroporation, and PCR amplification of a ˜607 bp fragment of the HBB locus (which captures both of the individual genomic locations that were targeted by gRNAs HBB-8 and HBB-15) was performed. After cleanup of the HBB PCR product with AMPURE beads, insertions/deletions (indels) at the targeted genomic location were evaluated by T7E1 assay and by DNA sequencing.
Human CD34^+ HSCs cells were isolated from freshly obtained human umbilical cord blood by ficoll gradient density centrifugation followed by MACS sorting with mouse anti-human CD34^+ immunomagnetic beads. […] In the afternoon of day 3, 2.2 million CD34^+ cells per sample were suspended in electroporation buffer.
In vitro transcribed capped and tailed guide gRNAs HBB-8 and HBB-15 were added at a 2:1 molar ratio (total gRNA:Cas9 protein) to 10 μg RNP per million cells.
For all samples, the cells were collected from the cartridge and placed at 37° C. for 20 minutes (recovery period).

human CB CD34^+ HSCs [1] = test system: human CB CD34^+ HSCs
Method: (§1) For all samples, the cells were collected from the cartridge and placed at 37° C. for 20 minutes (recovery period). […] For the cold shocked samples, the cells were transferred to the 37° C. incubator after the 2-hour incubation period at 30° C.
(§2) For all samples, the cells were collected from the cartridge and placed at 37° C. for 20 minutes (recovery period). For the CB CD34^+ cells that were contacted with 10 μg D10A nickase RNP (per million cells), one sample was transferred to pre-warmed cytokine supplemented Stemspan-SFEM™ media and placed at 30° C. for 2 hours (cold shock recovery) or placed directly into the same media at 37° C. For the cold shocked samples, the cells were transferred to the 37° C. incubator after the 2-hour incubation period at 30° C.
(§3) CB CD34^+ cells were pre-treated with each of these stem cell viability enhancers (Table 19) for 18 hours prior to electroporation with D10A Cas9 RNP, HBB-8 and HBB-15 modified gRNAs, and 5′ and 3′ phosphorothioate-modified ssODN donor template. After electroporation, cells were replated into HSC medium containing these stem cell viability enhancers and cultured for an additional 3 days.

human CB CD34^+ HSCs [2] = assay: Flow cytometry viability and stem cell phenotype of electroporated cord blood CD34+ cells
Method: as §1, §2, §3

[3] = test system: human mobilized peripheral blood CD34^+ HSCs; assay: Hematopoietic colony forming cell (CFC) assay in Methocult; assay type: cell-based; conditions: wild-type Cas9 and CCR5-U43 gRNA plasmid DNA; 40 nM UM171; two weeks
Text: […]; 345(6203):1509-1512). […] […].
To evaluate maintenance of HSC potency and differentiation potential, two weeks after plating CD34^+ HSCs in CFC assays, hematopoietic activity was quantified based on scoring the HSC progeny by enumerating the total number of hematopoietic colony forming units (CFU) and the frequencies of specific blood cell phenotypes, including: mixed myeloid/erythroid (Granulocyte-erythroid-monocyte macrophage, CFU-GEMM), myeloid (CFU-macrophage (M), granulocyte-macrophage (CFU-GM)) and erythroid (CFU-E) colonies. […].
To evaluate maintenance of HSC potency and differentiation potential, two weeks after plating CD34^+ HSCs in CFC assays, hematopoietic activity was quantified based on scoring the HSC progeny by enumerating the total number of hematopoietic colony forming units (CFU) and the frequencies of specific blood cell phenotypes, including: mixed myeloid/erythroid (Granulocyte-erythroid-monocyte macrophage, CFU-GEMM), myeloid (CFU-macrophage (M), granulocyte-macrophage (CFU-GM)) and erythroid (CFU-E) colonies. […]. […] After Nucleofection™, cells were replated into Stemspan-SFEM supplemented with SCF, TPO, FL and UM171. After overnight incubation, HSCs were replated in Stemspan-SFEM™ plus cytokines alone without UM171.
To evaluate maintenance of HSC potency and differentiation potential, two weeks after plating CD34^+ HSCs in CFC assays, hematopoietic activity was quantified based on scoring the HSC progeny by enumerating the total number of hematopoietic colony forming units (CFU) and the frequencies of specific blood cell phenotypes, including: mixed myeloid/erythroid (Granulocyte-erythroid-monocyte macrophage, CFU-GEMM), myeloid (CFU-macrophage (M), granulocyte-macrophage (CFU-GM)) and erythroid (CFU-E) colonies. CD34^+ HSCs that were Nucleofected™ CD34^+ HSCs maintained CFC potential compared to un-Nucleofected™ HSCs (Table 14).

[4] = test system: human mobilized peripheral blood CD34^+ HSCs; conditions: Nucleofection with wild type Cas9 and CCR5-U43 gRNA plasmid DNA; short-term 40 nM UM171
[5] = Homo sapiens, read-out: % Viability of CD34^+ stem cells

Compound	% HDR (HBB locus) [%]	% NHEJ (HBB locus) [%]	% Total Gene Editing (HBB locus) [%]	% Viability of CD34^+ stem cells (human CB CD34^+ HSCs [1]) [%]	viability at 0.5 µM (human CB CD34^+ HSCs [2]; [5]) [%]	viability at 0.005 µM (human CB CD34^+ HSCs [2]; [5]) [%]	Number of colony forming units, E (erythroid) [3]	Number of colony forming units, G [3]	Number of colony forming units, GEMM [3]	Number of colony forming units, GM [3]	Number of colony forming units, M [3]	Number of colony forming units, Total [3]	Fold-change in the number of live CD34^+ HSCs (96 hours) [4]	improvement in viability versus electroporated cells without pre-treatment (human CB CD34^+ HSCs [2]; CB CD34+, OxPAPC 30 μg/mL pre-treatment 18 hours) [%]	% Viability of CD34^+ stem cells (human CB CD34^+ HSCs [2]; CB CD34+, enhancer 18 hours before and 3 days after electroporation with D10A Cas9 RNP, HBB-8/HBB-15, Phx ssODN, UM171 35 nM, UM171/SR-1 35/40 nM, rapamycin 5 nM, OxPAPC 30 μg/mL, bafilomycin A1 1 μM, MG132 0.5 μM) [%]
CO/C1=C\C(C)=C\[C@@H](C)[C@@H](O)[C@@H](C)C/C(C)=C/C=C/[C@H](OC)[C@@H]([C@@H](C)[C@@H](O)[C@H](C)[C@@]2(O)C[C@@H](O)[C@H](C)[C@@H](C(C)C)O2)OC1=O [Bafilomycin A1, reference compound]	0	18	18	23	–	–	–	–	–	–	–	–	–	–	–
CC(C)C[C@@H](C=O)NC(=O)[C@H](CC(C)C)NC(=O)[C@H](CC(C)C)NC(=O)OCc1ccccc1 [MG132, benzyl (S)-4-methyl-1-((S)-4-methyl-1-((S)-4-methyl-1-oxopentan-2-ylamino)-1-oxopentan-2-ylamino)-1-oxopentan-2-ylcarbamate, reference compound] (Cbz-Leu-Leu-Leu-aldehyde)	0	0	0	–	19	–	–	–	–	–	–	–	–	–	–
CO[C@H]1C[C@@H]2CC[C@@H](C)[C@@](O)(O2)C(=O)C(=O)N2CCCC[C@H]2C(=O)O[C@H]([C@H](C)C[C@@H]2CC[C@@H](O)[C@H](OC)C2)CC(=O)[C@H](C)/C=C(\C)[C@@H](O)[C@@H](OC)C(=O)[C@H](C)C[C@H](C)/C=C/C=C/C=C/1C [Rapamycin (sirolimus), Rapamycin, reference compound]	7	46	53	–	–	52	–	–	–	–	–	–	–	–	–
Cn1nnc(-c2ccc3c(c2)[nH]c2nc(Cc4ccccc4)nc(N[C@H]4CC[C@H](N)CC4)c23)n1 [UM171, (1r,4r)-N1-(2-benzyl-7-(2-methyl-2H-tetrazol-5-yl)-9H-pyrimido[4,5-b]indol-4-yl)cyclohexane-1,4-diamine]	0	79	79	–	–	–	92 colony forming units per 1500 CD34^+ HSCs plated	40 colony forming units per 1500 CD34^+ HSCs plated	20 colony forming units per 1500 CD34^+ HSCs plated	32 colony forming units per 1500 CD34^+ HSCs plated	64 colony forming units per 1500 CD34^+ HSCs plated	228 colony forming units per 1500 CD34^+ HSCs plated	1.5	–	–
oxidized 1-palmitoyl-2-arachidonyl-sn-glycero-3-phosphorylcholine [OxPAPC, reference compound]	7	71	78	–	–	–	–	–	–	–	–	–	–	20	64
